US9567319B2, “Compound having higher inhibitory activity on protein kinase G and preparation method thereof” (Jenkem Technology Co., Ltd., (Tianjin), priority 2014, dated 2017)
Where “and” joins values, the source holds several entries; their conditions need not be identical. Equal values may be shown once. Entries after “also recorded” stand apart in the source; their conditions may differ.

What was measured:
[1] = system: hyperalgesia induced by Freund's complete adjuvant (CFA) in rats; test: Therapeutic effect on CFA induced hyperalgesia in rats (overall conclusion of Von Frey and weight bearing tests); assay type: in vivo, SD rats; conditions: compared with vehicle
Experimental: . A repeat efficacy study was carried out on the same batch of animals with a single-dose treatment followed by a washing-out period. The 14 days in life studies included two stages: a single low dose treatment assessment on the 7th day and then a single high dose treatment test on the 14th day after CFA injection.
On the 7th day after CFA injection, the rats were randomly assigned to respective groups using a computer generated randomization procedure based on the body weight and the baseline values of Von Frey and weight bearing test. Animals received corresponding single dose treatments (vehicle and 3 test articles) on the 7th and 14th days after CFA injection, respectively, and the effect of the test compounds were evaluated. Hyperalgesia of all the study animals was assessed following a single low dose treatment with the test articles on day 7, while a single high dose effect of the test article was evaluated on day 14.
The mechanical hyperalgesia and weight bearing were measured on day 7 and day 14 after CFA injection, followed by administration of control or test articles. Von Frey filaments and weight bearing were measured on all the study animals at three time points on day 7, and four time points on day 14. An extra time point assessment was conducted on day 14, considering the strong analgesic effect of the test articles at a higher dose noticed during the test at the 3th time point.
The effects of compounds 46, JK-02A and JK-02H on CFA induced hyperalgesia in rats were assessed with Von Frey and weight bearing tests following single injection.

[2] = system: hyperalgesia induced by Freund's complete adjuvant (CFA) in rats; test: Weight bearing test, CFA induced hyperalgesia in rats; assay type: in vivo, SD rats; conditions: for Weight Bearing Test Values (Mean ± SD), Baseline: pretreatment, n=8; for Weight Bearing Test Values (Mean ± SD), 15 min: 15 min post treatment; for Weight Bearing Test Values (Mean ± SD), 2 h: 2 h post treatment
Experimental: Compounds 46 and JK-02A were prepared according to the disclosure of US patent application No. US2008/0176920, and compound JK-02H was prepared according to Example 1. A repeat efficacy study was carried out on the same batch of animals with a single-dose treatment followed by a washing-out period. The 14 days in life studies included two stages: a single low dose treatment assessment on the 7th day and then a single high dose treatment test on the 14th day after CFA injection. On the 7th day after CFA injection, the rats were randomly assigned to respective groups using a computer generated randomization procedure based on the body weight and the baseline values of Von Frey and weight bearing test. Animals received corresponding single dose treatments (vehicle and 3 test articles) on the 7th and 14th days after CFA injection, respectively, and the effect of the test compounds were evaluated. Hyperalgesia of all the study animals was assessed following a single low dose treatment with the test articles on day 7, while a single high dose effect of the test article was evaluated on day 14. The mechanical hyperalgesia and weight bearing were measured on day 7 and day 14 after CFA injection, followed by administration of control or test articles. Von Frey filaments and weight bearing were measured on all the study animals at three time points on day 7, and four time points on day 14. An extra time point assessment was conducted on day 14, considering the strong analgesic effect of the test articles at a higher dose noticed during the test at the 3th time point. Rats distributed body weight unequally on the CFA-injected and contra lateral paws, which was measured by a weight balance changing instrument (Bio-medical, USA). The animals were tested in a box constructed to register the weight load exerted by the hind paws by means of force plates inserted in the floor. The mean weight bearing (unit in “g”) between the CFA-injected paw and the contra-lateral paw was determined in 10 seconds. The weight bearing test of all study animals was conducted at the same time intervals as the mechanical hyperalgesia test. All the results were expressed as mean±SD. One-way analysis of variance (ANOVA) followed by a multiple comparison test were applied among the groups, p<0.05 accepted as significant.

[3] = day 7 after CFA, single low dose i.v. (46 and JK-02A 10 mg/kg, JK-02H 5 mg/kg)
[4] = day 14 after CFA, single high dose i.v. (46 and JK-02A 40 mg/kg, JK-02H 20 mg/kg)
[5] = individual animal, high dose i.v. (46 and JK-02A 40 mg/kg, JK-02H 20 mg/kg)
[6] = individual animal, low dose i.v. (46 and JK-02A 10 mg/kg, JK-02H 5 mg/kg)

SMILES: CCCOc1ccc(O)c(F)c1C(=O)c1ccc(C(=O)N[C@@H]2CNC[C@H]2NC(=O)c2ccc3cn[nH]c3c2)cc1 [compound 46]
- anti-hyperalgesia effect at high dose ([1]; high dose i.v.: JK-02H 20 mg/kg, 46 and JK-02A 40 mg/kg): anti-hyperalgesia effect; also recorded: showed anti-hyperalgesia effects
- anti-hyperalgesia effect at low dose ([1]; low dose i.v.: JK-02H 5 mg/kg, 46 and JK-02A 10 mg/kg): barely showed any anti-hyperalgesia effect; also recorded: not significant
- Weight Bearing Test Values (Mean ± SD), Baseline ([2]; day 7 after CFA, low dose groups (46 and JK-02A 10 mg/kg, JK-02H 5 mg/kg)): 48.54 ± 7.73 g
- Weight Bearing Test Values (Mean ± SD), 15 min [2, 3]: 44.76 ± 8.54 g
- Weight Bearing Test Values (Mean ± SD), 2 h [2, 3]: 41.09 ± 8.58 g
- Weight Bearing Test Values (Mean ± SD), Baseline ([2]; day 14 after CFA, high dose groups (46 and JK-02A 40 mg/kg, JK-02H 20 mg/kg)): 46.73 ± 5.58 g
- Weight Bearing Test Values (Mean ± SD), 15 min [2, 4]: 34.03 ± 5.67 g
- Weight Bearing Test Values (Mean ± SD), 2 h [2, 4]: 44.46 ± 11.29 g
- Weight Bearing Test Values (Mean ± SD), 5 h ([2]; day 14 after CFA, single high dose i.v. (46 and JK-02A 40 mg/kg, JK-02H 20 mg/kg), 5 h post treatment): 41.06 ± 6.98 g
- Weight Bearing Values of Individual Animal, Day 14, 15 min, Left [2, 5]: 62.4 g and 64.0 g and 61.5 g and 63.7 g and 59.2 g and 39.7 g and 52.6 g and 68.4 g
- Weight Bearing Values of Individual Animal, Day 14, 15 min, Right [2, 5]: 96.4 g and 104.7 g and 95.1 g and 95.7 g and 96.9 g and 71.9 g and 75.2 g and 107.8 g
- Weight Bearing Values of Individual Animal, Day 14, 15 min, Δ [2, 5]: 34.0 g and 40.7 g and 33.6 g and 32.0 g and 37.7 g and 32.2 g and 22.6 g and 39.4 g
- Weight Bearing Values of Individual Animal, Day 14, 2 h, Left [2, 5]: 59.9 g and 68.1 g and 65.7 g and 44.8 g and 56.2 g and 36.9 g and 65.4 g and 67.0 g
- Weight Bearing Values of Individual Animal, Day 14, 2 h, Right [2, 5]: 107.1 g and 101.0 g and 112.2 g and 110.9 g and 98.5 g and 87.3 g and 94.8 g and 107.9 g
- Weight Bearing Values of Individual Animal, Day 14, 2 h, Δ [2, 5]: 47.2 g and 32.9 g and 46.5 g and 66.1 g and 42.3 g and 50.4 g and 29.4 g and 40.9 g
- Weight Bearing Values of Individual Animal, Day 14, 5 h, Left [2, 5]: 55.9 g and 34.5 g and 56.8 g and 58.2 g and 47.3 g and 31.3 g and 41.6 g and 73.0 g
- Weight Bearing Values of Individual Animal, Day 14, 5 h, Right [2, 5]: 102.4 g and 85.3 g and 101.8 g and 88.4 g and 90.0 g and 66.5 g and 76.3 g and 116.4 g
- Weight Bearing Values of Individual Animal, Day 14, 5 h, Δ [2, 5]: 46.5 g and 50.8 g and 45.0 g and 30.2 g and 42.7 g and 35.2 g and 34.7 g and 43.4 g
- Weight Bearing Values of Individual Animal, Day 7, 15 min, Left [2, 6]: 47.4 g and 40.2 g and 67.4 g and 60.4 g and 40.3 g and 39.0 g and 24.3 g and 58.1 g
- Weight Bearing Values of Individual Animal, Day 7, 15 min, Right [2, 6]: 93.5 g and 94.1 g and 110.9 g and 89.1 g and 91.2 g and 81.7 g and 62.7 g and 112.0 g
- Weight Bearing Values of Individual Animal, Day 7, 15 min, Δ [2, 6]: 46.1 g and 53.9 g (2×) and 43.5 g and 28.7 g and 50.9 g and 42.7 g and 38.4 g
- Weight Bearing Values of Individual Animal, Day 7, 2 h, Left [2, 6]: 48.5 g and 39.0 g and 65.0 g and 66.3 g and 48.4 g and 43.4 g and 38.0 g and 54.8 g
- Weight Bearing Values of Individual Animal, Day 7, 2 h, Right [2, 6]: 91.5 g and 81.8 g and 102.9 g and 97.7 g and 80.7 g and 82.3 g and 81.5 g and 113.7 g
- Weight Bearing Values of Individual Animal, Day 7, 2 h, Δ [2, 6]: 43.0 g and 42.8 g and 37.9 g and 31.4 g and 32.3 g and 38.9 g and 43.5 g and 58.9 g
- First Baseline, Balance Left, individual animal ([2]; individual animal, pretreatment day 7, left (CFA-injected) hind paw): 31.3 g and 27.8 g and 41.8 g and 63.2 g and 73.9 g and 49.6 g and 33.9 g and 60.4 g
- First Baseline, Balance Right, individual animal ([2]; individual animal, pretreatment day 7, right hind paw): 83.6 g and 87.0 g and 91.8 g and 105.0 g and 114.0 g and 102.9 g and 71.5 g and 114.4 g
- First Baseline, Balance Δ, individual animal ([2]; individual animal, pretreatment day 7, right minus left): 52.3 g and 59.2 g and 50.0 g and 41.8 g and 40.1 g and 53.3 g and 37.6 g and 54.0 g
- Second Baseline, Balance Left, individual animal ([2]; individual animal, pretreatment day 14, left (CFA-injected) hind paw): 61.3 g and 45.0 g and 70.0 g and 51.2 g and 34.7 g and 24.8 g and 43.5 g and 65.5 g
- Second Baseline, Balance Right, individual animal ([2]; individual animal, pretreatment day 14, right hind paw): 115.3 g and 95.2 g and 119.5 g and 104.5 g and 76.6 g and 67.1 g and 84.3 g and 107.3 g
- Second Baseline, Balance Δ, individual animal ([2]; individual animal, pretreatment day 14, right minus left): 54.0 g and 50.2 g and 49.5 g and 53.3 g and 41.9 g and 42.3 g and 40.8 g and 41.8 g
